Test results published in patent US20250026721A1, “COMPOUNDS AND METHODS FOR MODULATING RAS-PI3K” (Vividion Therapeutics, Inc., priority 2023, published 2025).

Each compound was assayed against T1, PIK3CA (Homo sapiens, UniProt P42336) (assay: In vitro ELISA target engagement assay for PIK3CA in Jurkat cellular lysate (competition with PIK3CA Biotin Probe)). Conditions: 1 hour at rt, then 500 nM PIK3CA Biotin Probe, read-out: Elisa Target Engagement Assay (TE50).
T1 construct: endogenous in cells; host or cells: Jurkat cell lysate
T1 sequence (P42336 whole entry): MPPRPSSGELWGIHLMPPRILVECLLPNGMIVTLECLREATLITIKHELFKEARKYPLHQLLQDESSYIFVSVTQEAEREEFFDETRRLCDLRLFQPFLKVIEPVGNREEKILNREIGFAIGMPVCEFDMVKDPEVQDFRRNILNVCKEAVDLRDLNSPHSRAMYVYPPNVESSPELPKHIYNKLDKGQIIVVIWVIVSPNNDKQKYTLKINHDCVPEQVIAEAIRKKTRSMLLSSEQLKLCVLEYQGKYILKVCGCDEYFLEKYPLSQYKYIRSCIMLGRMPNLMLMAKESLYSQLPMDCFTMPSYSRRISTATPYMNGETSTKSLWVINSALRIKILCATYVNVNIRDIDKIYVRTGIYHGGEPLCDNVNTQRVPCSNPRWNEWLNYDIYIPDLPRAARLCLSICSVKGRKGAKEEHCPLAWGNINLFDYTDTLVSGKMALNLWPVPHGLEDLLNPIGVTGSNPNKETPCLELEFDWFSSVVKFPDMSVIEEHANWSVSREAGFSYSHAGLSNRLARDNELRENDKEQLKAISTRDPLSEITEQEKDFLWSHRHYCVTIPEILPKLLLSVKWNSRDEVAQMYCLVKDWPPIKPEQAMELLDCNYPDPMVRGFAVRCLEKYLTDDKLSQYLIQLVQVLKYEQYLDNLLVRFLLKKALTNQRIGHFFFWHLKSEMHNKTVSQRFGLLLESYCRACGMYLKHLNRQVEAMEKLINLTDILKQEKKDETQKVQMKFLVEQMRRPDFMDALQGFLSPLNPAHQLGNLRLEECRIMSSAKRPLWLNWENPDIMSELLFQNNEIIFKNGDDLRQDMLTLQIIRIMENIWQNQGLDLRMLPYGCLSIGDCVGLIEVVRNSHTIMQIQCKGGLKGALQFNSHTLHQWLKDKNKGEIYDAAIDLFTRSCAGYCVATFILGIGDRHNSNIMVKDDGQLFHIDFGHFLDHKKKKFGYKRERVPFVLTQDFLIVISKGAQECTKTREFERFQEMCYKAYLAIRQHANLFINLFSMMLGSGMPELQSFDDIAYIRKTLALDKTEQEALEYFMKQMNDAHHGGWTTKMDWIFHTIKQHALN
T1 sequence (P27986 whole entry partner): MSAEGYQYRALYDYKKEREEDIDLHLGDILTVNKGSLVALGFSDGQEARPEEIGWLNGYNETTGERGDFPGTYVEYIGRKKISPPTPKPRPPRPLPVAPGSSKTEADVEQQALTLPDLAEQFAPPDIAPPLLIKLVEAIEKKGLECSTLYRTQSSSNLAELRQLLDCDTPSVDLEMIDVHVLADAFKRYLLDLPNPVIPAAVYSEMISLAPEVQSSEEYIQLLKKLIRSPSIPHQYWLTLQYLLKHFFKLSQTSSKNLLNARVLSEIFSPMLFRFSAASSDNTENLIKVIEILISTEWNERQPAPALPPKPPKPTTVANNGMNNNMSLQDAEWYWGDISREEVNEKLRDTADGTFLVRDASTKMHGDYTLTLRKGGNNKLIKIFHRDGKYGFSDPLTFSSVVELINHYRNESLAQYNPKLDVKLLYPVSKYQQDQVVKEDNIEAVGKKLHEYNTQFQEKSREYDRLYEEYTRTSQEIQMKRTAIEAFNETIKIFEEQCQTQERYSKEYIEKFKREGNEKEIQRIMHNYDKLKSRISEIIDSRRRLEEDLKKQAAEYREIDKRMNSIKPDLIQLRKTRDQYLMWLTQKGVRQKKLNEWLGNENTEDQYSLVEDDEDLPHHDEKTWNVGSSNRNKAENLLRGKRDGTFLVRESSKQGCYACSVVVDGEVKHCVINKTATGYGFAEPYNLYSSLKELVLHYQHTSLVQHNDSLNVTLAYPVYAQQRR
Format: binding
Outline: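 Competition format in Jurkat lysate: compound (serial dilutions, top 200 μM) for 1 h at rt, then 500 nM final biotinylated PIK3CA probe for 1 h at rt. Sandwich ELISA with capture antibody and Neutravidin-HRP luminescence read-out measured probe-labelled PIK3CA, giving TE50.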

IC50 [nM]	SMILES
240	C[C@H](/C=C\S(C)(=O)=O)NC(=O)C1(F)CCN(S(=O)(=O)c2cnc(C(F)(F)F)cc2-c2cccc(F)c2Cl)CC1 [Compound 209, (R,Z)-1-((4-(2-chloro-3-fluorophenyl)-6-(trifluoromethyl)pyridin-3-yl)sulfonyl)-4-fluoro-N-(4-(methylsulfonyl)but-3-en-2-yl)piperidine-4-carboxamide]
830	C[C@@H](/C=C\C(=O)N1CC(F)(F)C1)NC(=O)C1(F)CCN(S(=O)(=O)c2ccc(Br)cc2-c2ccccc2Cl)CC1 [Compound 287, (S,Z)-1-((5-bromo-2′-chloro-[1,1′-biphenyl]-2-yl)sulfonyl)-N-(5-(3,3-difluoroazetidin-1-yl)-5-oxopent-3-en-2-yl)-4-fluoropiperidine-4-carboxamide]
700	C[C@H](/C=C\S(C)(=O)=O)NC(=O)C1(F)CCN(C(=O)[C@H]2CN(CC(F)(F)c3ccccc3)C[C@H]2c2ccccc2Cl)CC1 [Compound 181, 1-((3R,4R)-4-(2-chlorophenyl)-1-(2,2-difluoro-2-phenylethyl)pyrrolidine-3-carbonyl)-4-fluoro-N-((R,Z)-4-(methylsulfonyl)but-3-en-2-yl)piperidine-4-carboxamide]
200	C[C@H](/C=C\S(C)(=O)=O)NC(=O)C1(F)CCN(S(=O)(=O)c2cc3sccc3cc2-c2ccccc2Cl)CC1 [Compound 157, (R,Z)-1-((5-(2-chlorophenyl)benzo [b]thiophen-6-yl)sulfonyl)-4-fluoro-N-(4-(methylsulfonyl)but-3-en-2-yl)piperidine-4-carboxamide]
120	C[C@H](/C=C\S(C)(=O)=O)NC(=O)[C@]1(F)CCN(S(=O)(=O)c2ccc(C(F)(F)F)cc2-c2ccccc2Cl)[C@H](C)C1 [Compound 142, (2R,4S)-1-((2′-chloro-5-(trifluoromethyl)-[1,1′-biphenyl]-2-yl)sulfonyl)-4-fluoro-2-methyl-N-((R,Z)-4-(methylsulfonyl)but-3-en-2-yl)piperidine-4-carboxamide]
520	N#C/C=C/CNC(=O)C1(F)CCN(S(=O)(=O)c2cnc(Cl)cc2-c2ccccc2Cl)CC1 [Compound 232, (E)-1-((6-chloro-4-(2-chlorophenyl)pyridin-3-yl)sulfonyl)-N-(3-cyanoallyl)-4-fluoropiperidine-4-carboxamide]
38	C[C@@H](/C=C\S(C)(=O)=O)NC(=O)C1(F)CCN(S(=O)(=O)c2ccc(C(F)(F)F)cc2-c2ccccc2Cl)CC1 [Compound 18, (S,Z)-1-((2′-chloro-5-(trifluoromethyl)-[1,1′-biphenyl]-2-yl)sulfonyl)-4-fluoro-N-(4-(methylsulfonyl)but-3-en-2-yl)piperidine-4-carboxamide]
290	O=C(NCC1=CS(=O)(=O)C1)C1(F)CCN(S(=O)(=O)c2ccc(Br)cc2-c2ccccc2Cl)CC1 [Compound 233, 1-((5-bromo-2′-chloro-[1,1′-biphenyl]-2-yl)sulfonyl)-N-((1,1-dioxido-2H-thiet-3-yl)methyl)-4-fluoropiperidine-4-carboxamide]
910	C[C@H](/C=C\S(C)(=O)=O)NC(=O)C1(F)CCN(C(=O)[C@H]2CN(CC(F)(F)C(F)(F)F)C[C@H]2c2ccccc2Cl)CC1 [Compound 182, 1-((3R,4R)-4-(2-chlorophenyl)-1-(2,2,3,3,3-pentafluoropropyl)pyrrolidine-3-carbonyl)-4-fluoro-N-((R,Z)-4-(methylsulfonyl)but-3-en-2-yl)piperidine-4-carboxamide]
740	C[C@H](/C=C\S(C)(=O)=O)NC(=O)C1(F)CCN(C(=O)[C@H]2CN(C3CC3)C[C@H]2c2ccccc2Cl)CC1 [Compound 304, 1-((3R,4R)-4-(2-chlorophenyl)-1-cyclopropylpyrrolidine-3-carbonyl)-4-fluoro-N-((R,Z)-4-(methylsulfonyl)but-3-en-2-yl)piperidine-4-carboxamide]
200	O=C(/C=C/CNC(=O)C1(F)CCN(S(=O)(=O)c2ccc(C(F)(F)F)cc2-c2ccccc2Cl)CC1)N1CC(F)(F)C1 [Compound 283, (E)-1-((2′-chloro-5-(trifluoromethyl)-[1,1′-biphenyl]-2-yl)sulfonyl)-N-(4-(3,3-difluoroazetidin-1-yl)-4-oxobut-2-en-1-yl)-4-fluoropiperidine-4-carboxamide]
160	C[C@@H](C#CC(=O)N(C)C)NC(=O)C1(F)CCN(S(=O)(=O)c2ccc(Br)cc2-c2ccccc2Cl)CC1 [Compound 281, (S)-1-((5-bromo-2′-chloro-[1,1′-biphenyl]-2-yl)sulfonyl)-N-(5-(dimethylamino)-5-oxopent-3-yn-2-yl)-4-fluoropiperidine-4-carboxamide]
860	C[C@H](/C=C\S(C)(=O)=O)NC(=O)C1(F)CCN(S(=O)(=O)c2ccc(Br)cc2-c2ccccc2C(F)(F)F)CC1 [Compound 54, (R,Z)-1-((5-bromo-2′-(trifluoromethyl)-[1,1′-biphenyl]-2-yl)sulfonyl)-4-fluoro-N-(4-(methylsulfonyl)but-3-en-2-yl)piperidine-4-carboxamide]
380	C[C@@H](/C=C\S(C)(=O)=O)NC(=O)C1(F)CCN(S(=O)(=O)c2cnc(C(F)(F)F)cc2-c2ccc(F)cc2Cl)CC1 [Compound 212, (S,Z)-1-((4-(2-chloro-4-fluorophenyl)-6-(trifluoromethyl)pyridin-3-yl)sulfonyl)-4-fluoro-N-(4-(methylsulfonyl)but-3-en-2-yl)piperidine-4-carboxamide]
310	COc1ccc(S(=O)(=O)N2CC[C@](F)(C(=O)N[C@H](C)/C=C\S(C)(=O)=O)CC2(C)C)c(-c2ccccc2Cl)c1 (single isomer, unassigned) [Compound 150, (*R)-1-((2′-chloro-5-methoxy-[1,1′-biphenyl]-2-yl)sulfonyl)-4-fluoro-2,2-dimethyl-N-((R,Z)-4-(methylsulfonyl)but-3-en-2-yl)piperidine-4-carboxamide]
220	C[C@H](/C=C\S(C)(=O)=O)NC(=O)[C@]1(F)CCN(S(=O)(=O)c2cnc(C(F)(F)F)cc2-c2ccccc2Cl)[C@H](C)C1 [Compound 214, (2R,4S)-1-((4-(2-chlorophenyl)-6-(trifluoromethyl)pyridin-3-yl)sulfonyl)-4-fluoro-2-methyl-N-((R,Z)-4-(methylsulfonyl)but-3-en-2-yl)piperidine-4-carboxamide]
150	C[C@H](C#CC(=O)N(C)C)NC(=O)C1(F)CCN(S(=O)(=O)c2ccc(Br)cc2-c2ccccc2Cl)CC1 [Compound 280, (R)-1-((5-bromo-2′-chloro-[1,1′-biphenyl]-2-yl)sulfonyl)-N-(5-(dimethylamino)-5-oxopent-3-yn-2-yl)-4-fluoropiperidine-4-carboxamide]
461	CC[C@@H](/C=C/S(=O)(=O)C1CNC1)NC(=O)C1(F)CCN(S(=O)(=O)c2ccc(Br)cc2-c2ccccc2Cl)CC1 [Compound 78, (S,E)-N-(1-(azetidin-3-ylsulfonyl)pent-1-en-3-yl)-1-((5-bromo-2′-chloro-[1,1′-biphenyl]-2-yl)sulfonyl)-4-fluoropiperidine-4-carboxamide]
190	C[C@H](/C=C/C(=O)N1CC(F)(F)C1)NC(=O)C1(F)CCN(S(=O)(=O)c2ccc(C#N)cc2-c2ccccc2Cl)CC1 [Compound 136, (R,E)-1-((2′-chloro-5-cyano-[1,1′-biphenyl]-2-yl)sulfonyl)-N-(5-(3,3-difluoroazetidin-1-yl)-5-oxopent-3-en-2-yl)-4-fluoropiperidine-4-carboxamide]
198	CC[C@@H](/C=C\S(C)(=O)=O)NC(=O)C1(F)CCN(S(=O)(=O)c2ccc(Br)cc2-c2ccccc2Cl)CC1 [Compound 82, (S,Z)-1-((5-bromo-2′-chloro-[1,1′-biphenyl]-2-yl)sulfonyl)-4-fluoro-N-(1-(methylsulfonyl)pent-1-en-3-yl)piperidine-4-carboxamide]
91	C[C@H](/C=C\S(C)(=O)=O)NC(=O)C1(F)CCN(S(=O)(=O)c2ccc(Cl)cc2-c2ccccc2Cl)CC1 [Compound 23, (R,Z)-1-((2′,5-dichloro-[1,1′-biphenyl]-2-yl)sulfonyl)-4-fluoro-N-(4-(methylsulfonyl)but-3-en-2-yl)piperidine-4-carboxamide]
350	COc1ccc(C(=O)N2CCC[C@](F)(C(=O)N[C@H](C)/C=C\S(C)(=O)=O)CC2)c(-c2ccccc2Cl)c1 [Compound 295, (R)-1-(2′-chloro-5-methoxy-[1,1′-biphenyl]-2-carbonyl)-4-fluoro-N-((R,Z)-4-(methylsulfonyl)but-3-en-2-yl)azepane-4-carboxamide]
150	Cc1c(F)cccc1-c1cc(Br)ccc1S(=O)(=O)N1CCC(F)(C(=O)N[C@H](C)/C=C\S(C)(=O)=O)CC1 [Compound 56, (R,Z)-1-((5-bromo-3′-fluoro-2′-methyl-[1,1′-biphenyl]-2-yl)sulfonyl)-4-fluoro-N-(4-(methylsulfonyl)but-3-en-2-yl)piperidine-4-carboxamide]
744	COc1cccc(-c2ccccc2S(=O)(=O)N2CCC(F)(C(=O)N[C@@H](C)/C=C\S(C)(=O)=O)CC2)c1 [Compound 19, (S,Z)-4-fluoro-1-((3′-methoxy-[1,1′-biphenyl]-2-yl)sulfonyl)-N-(4-(methylsulfonyl)but-3-en-2-yl)piperidine-4-carboxamide]
1000	C[C@@H]1C[C@](F)(C(=O)NC/C=C\C(=O)N2CC(F)(F)C2)CCN1S(=O)(=O)c1ccc(C(F)(F)F)cc1-c1ccccc1Cl [Compound 290, (2R,4S)-1-((2′-chloro-5-(trifluoromethyl)-[1,1′-biphenyl]-2-yl)sulfonyl)-N-((Z)-4-(3,3-difluoroazetidin-1-yl)-4-oxobut-2-en-1-yl)-4-fluoro-2-methylpiperidine-4-carboxamide]
320	C[C@@H]1C[C@](F)(C(=O)NC/C=C\C(=O)N2CC(F)(F)C2)CCN1S(=O)(=O)c1ccc(Br)cc1-c1ccccc1Cl [Compound 291, (2R,4S)-1-((5-bromo-2′-chloro-[1,1′-biphenyl]-2-yl)sulfonyl)-N-((Z)-4-(3,3-difluoroazetidin-1-yl)-4-oxobut-2-en-1-yl)-4-fluoro-2-methylpiperidine-4-carboxamide]
